Measured values: PMC12903969, “Discovery of a Novel and Potent Kir4.1 Inhibitor as a Safe and Rapid‐Onset Antidepressant Agent in Mice” (Advanced Science, 2025)
Where two headings read alike, the source gives them in different places.

How the values were obtained:
[1] = tested on: MDA-MB-468 breast cancer cells; test: Cytotoxicity test (CCK-8); type: cell-based; settings: read-out: IC50 ± SD (μM) for MDA-MB-468 Inhibition
Description: Cytotoxicity of all the tested compounds was determined using the cell counting kit‐8 (CCK‐8) assay kit (Beyotime, Shanghai, China). Briefly, MDA‐MB‐468 was cultured in L15 medium and plated in 96‐well plates at a density of 12,000 cells per well for 24 h at 37 °C in a 5% CO2 incubator. The tested compounds were dissolved in DMSO and diluted with culture medium (DMSO final concentration < 0.4%). Then the cells were treated with compounds (0.41, 1.23, 3.70, 11.11, 33.33, 100.00 µM) for 48 h. After treatments, removal of the supernatant liquor, 100 µL of new media diluted CCK‐8 solution (10% CCK‐8) was added into each well and incubated at 37 °C for 2 h. The absorbance of the mixture was directly measured at 450 nm. The results are presented as a percentage of the control.

[2] = target: T1, Kir4.1 (Homo sapiens, UniProt P78508); test: Whole-cell patch clamp, Kir4.1 currents in transfected CHO-K1 cells; type: cell-based; settings: for inhibition at 10 µM: CHO-K1, 10 μM; for inhibition at 1 µM: CHO-K1, 1 μM
T1 construct: host or cells: CHO-K1
T1 sequence (P78508 1-379): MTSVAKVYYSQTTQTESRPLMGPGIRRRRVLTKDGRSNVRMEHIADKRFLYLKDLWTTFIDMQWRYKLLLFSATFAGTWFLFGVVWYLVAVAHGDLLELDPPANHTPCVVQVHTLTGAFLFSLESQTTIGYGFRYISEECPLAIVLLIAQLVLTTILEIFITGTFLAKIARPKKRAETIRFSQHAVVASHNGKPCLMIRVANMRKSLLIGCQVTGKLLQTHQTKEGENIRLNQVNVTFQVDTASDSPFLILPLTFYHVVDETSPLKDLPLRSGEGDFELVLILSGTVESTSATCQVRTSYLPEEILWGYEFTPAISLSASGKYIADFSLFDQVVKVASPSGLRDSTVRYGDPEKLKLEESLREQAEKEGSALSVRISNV
Description: Plasmids encoding WT human potassium channels Kir1.1, Kir2.1, Kir2.2, Kir4.1, and Kir4.2 were obtained from the Beijing Genomics Institute. All point mutations were constructed using the QuickChange II Site‐Directed Mutagenesis Kit (Stratagene) and subsequently verified by sequencing.
CHO‐K1 cells were maintained in DMEM/F12 growth medium containing 10% fetal bovine serum. Plasmids encoding the target genes (3600 ng) and enhanced green fluorescent protein (400 ng) were cotransfected into cells using Lipofectamine 2000 (Invitrogen) in accordance with the manufacturer's instructions. Cells were seeded onto poly‐d‐lysine (PDL)‐coated glass coverslips 1 h prior to electrophysiological recordings. All cells were cultured under standard conditions of 5% CO2 at 37 °C.
Whole‐cell patch‐clamp recordings were obtained either in transiently transfected CHO‐K1 cells or in primary cultured astrocytes at room temperature using standard patch‐clamp techniques with an Axopatch‐700B amplifier (Axon Instruments). The signals were filtered at 2 kHz and sampled at 20 kHz using the Digidata 1440A interface (Axon Instruments). The resistance of borosilicate glass pipettes was typically 2–4 MΩ when filled with the internal solution. Drug application was facilitated using a BPS perfusion system (ALA Scientific Instruments). Macroscopic currents generated by expressed potassium channels were recorded under the voltage‐clamp conditions with an internal pipette solution composed of (in mM): 140 KCl, 5 NaCl, 1 CaCl2, 1 MgCl2, 10 HEPES, and 10 EGTA, pH 7.2 adjusted with KOH. The external solution contained (in mM): 140 NaCl, 5 KCl, 2 CaCl2, 1 MgCl2, 10 glucose, and 10 HEPES, pH 7.4 adjusted with NaOH. Currents were elicited with a hyperpolarized voltage at −120 mV from the holding potential of −80 mV, followed by a ramp voltage depolarizing to +50 mV. Astrocytic resting membrane potentials were recorded under current‐clamp conditions (I = 0 pA) using standard internal and external solutions, determined immediately after achieving whole‐cell mode.

[3] = Homo sapiens, MDA-MB-468, MDA-MB-468 breast cancer cells
[4] = +50 mV, read-out: Kir4.1 Inhibition ± SD (%) at 10 μM, +50 mV
[5] = -120 mV, read-out: Kir4.1 Inhibition ± SD (%) at 10 μM, -120 mV
[6] = +50 mV, read-out: Kir4.1 Inhibition ± SD (%) at 1 μM, +50 mV
[7] = -120 mV, read-out: Kir4.1 Inhibition ± SD (%) at 1 μM, -120 mV
[8] = CHO-K1, 0.5 μM, +50 mV, read-out: Kir4.1 Inhibition ± SD (%) at 0.5 μM, +50 mV
[9] = CHO-K1, 0.5 μM, -120 mV, read-out: Kir4.1 Inhibition ± SD (%) at 0.5 μM, -120 mV

| inhibition at 10 µM [2, 4] [%] | inhibition at 10 µM [2, 5] [%] | inhibition at 1 µM [2, 6] [%] | inhibition at 1 µM [2, 7] [%] | Kir4.1 Inhibition ± SD (%) at 10 μM, +50 mV ([2]; +50 mV) [%] | Kir4.1 Inhibition ± SD (%) at 10 μM, -120 mV ([2]; -120 mV) [%] | inhibition at 0.5 µM [2, 8] [%] | inhibition at 0.5 µM [2, 9] [%] | inhibition at 0.5 µM ([2]; CHO-K1, 0.5 µM, read-out: Kir4.1 inhibition at 0.5 µM) [%] | Structure (SMILES) | IC50 [1, 3] [µM] | IC50 ([1]; MDA-MB-468 breast cancer cells) [µM] |
| --- | --- | --- | --- | --- | --- | --- | --- | --- | --- | --- | --- |
| 1.43 ± 3.1 | 2.21 ± 9.84 | – | – | – | – | – | – | – | O=c1c2ccccc2[nH]c2ccc(Nc3ccnc(NCCCN4CCOCC4)n3)cc12 [JX3208, 2-((2-((3-morpholinopropyl)amino)pyrimidin-4-yl)amino)acridin-9(10H)-one] | 16.8 ± 0.51 | – |
| 11.9 ± 10.1 | 7.77 ± 6.65 | – | – | – | – | – | – | – | Fc1cnc(NCCCN2CCOCC2)nc1Nc1ccc2oc3ccccc3c2c1 [JX3217, N^4-(dibenzo[b,d]furan-2-yl)-5-fluoro-N^2-(3-morpholinopropyl)pyrimidine-2,4-diamine] | > 50 | – |
| 97.02 ± 0.67 | 92 ± 1.98 | 16.8 ± 8.93 | 9.55 ± 3.62 | – | – | – | – | – | Cc1cnc(NCCCN2CCOCC2)nc1Nc1ccc2oc3ccccc3c2c1 [JX3216, N^4-(dibenzo[b,d]furan-2-yl)-5-methyl-N^2-(3-morpholinopropyl)pyrimidine-2,4-diamine] | 17.9 ± 0.65 | – |
| – | – | – | – | 7.01 ± 4.11 | 6.62 ± 0.29 | – | – | – | c1ccc2c(c1)oc1ccc(Nc3cncc(NCCCN4CCOCC4)n3)cc12 [JX3223, N^2-(dibenzo[b,d]furan-2-yl)-N^6-(3-morpholinopropyl)pyrazine-2,6-diamine] | 23 ± 3.41 | – |
| 6.08 ± 3.06 | 2.79 ± 2.22 | – | – | – | – | – | – | – | c1cc(NC2CCCCC2)nc(NCCCN2CCOCC2)n1 [JX3202, N^4-cyclohexyl-N^2-(3-morpholinopropyl)pyrimidine-2,4-diamine] | 21.1 ± 2.08 | – |
| 84.2 ± 2.69 | 59.5 ± 3.66 | 4.09 ± 2.08 | 1.97 ± 2.44 | – | – | – | – | – | O=C(NCCCNc1nccc(Nc2ccc3oc4ccccc4c3c2)n1)N1CCOCC1 [JX3241, N-(3-((4-(dibenzo[b,d]furan-2-ylamino)pyrimidin-2-yl)amino)propyl)morpholine-4-carboxamide] | 21.1 ± 1.53 | – |
| 96 ± 2.25 | 90.9 ± 4.5 | 53.2 ± 3.51 | 36.4 ± 5.31 | – | – | – | – | – | c1ccc2c(c1)oc1ccc(Nc3ccnc(NCCCN4CCCC4)n3)cc12 [JX3239, N^4-(dibenzo[b,d]furan-2-yl)-N^2-(3-(pyrrolidin-1-yl)propyl)pyrimidine-2,4-diamine] | 11.1 ± 0.81 | – |
| 97.75 ± 0.84 | 94.2 ± 2.26 | 80.4 ± 8.36 | 66.6 ± 2.75 | – | – | – | – | – | CC1CC(C)CN(CCCNc2nccc(Nc3ccc4oc5ccccc5c4c3)n2)C1 (centres unmarked) [JX3247, N^4-(dibenzo[b,d]furan-2-yl)-N^2-(3-(3,5-dimethylpiperidin-1-yl)propyl)pyrimidine-2,4-diamine] | 6.03 ± 0.24 | – |
| 97.46 ± 0.59 | 81.5 ± 2.87 | 21.9 ± 8.36 | 11.5 ± 6.63 | – | – | – | – | – | c1ccc2c(c1)oc1ccc(Nc3ccnc(NCCCN4CCN(C5COC5)CC4)n3)cc12 [JX3248, N^4-(dibenzo[b,d]furan-2-yl)-N^2-(3-(4-(oxetan-3-yl)piperazin-1-yl)propyl)pyrimidine-2,4-diamine] | > 50 | – |
| 95.83 ± 0.42 | 89.8 ± 1.62 | 79.3 ± 3.86 | 71 ± 2.19 | – | – | 39.5 ± 5.16 | 30.3 ± 5.33 | – | c1ccc2c(c1)ccc1[nH]c3ccc(Nc4ccnc(NCCCN5CCOCC5)n4)cc3c12 [JX3215, N^4-(7H-benzo[c]carbazol-10-yl)-N^2-(3-morpholinopropyl)pyrimidine-2,4-diamine] | 6.72 ± 0.28 | – |
| 98.5 ± 0.23 | 93.1 ± 2.15 | 27 ± 12.3 | 2.21 ± 3.14 | – | – | – | – | – | CCN(CC)CCCNc1nccc(Nc2ccc3oc4ccccc4c3c2)n1 [JX3238, N^4-(dibenzo[b,d]furan-2-yl)-N^2-(3-(diethylamino)propyl)pyrimidine-2,4-diamine] | 10.3 ± 3.8 | – |
| 98.66 ± 0.25 | 97 ± 1.09 | 85.4 ± 3.98 | 74.5 ± 6.63 | – | – | 74.9 ± 2.12 | 63 ± 5.95 | > 60 | c1ccc2c(c1)oc1ccc(Nc3ccnc(NCCCN4CCCCC4)n3)cc12 [JX3244, N^4-(dibenzo[b,d]furan-2-yl)-N^2-(3-(piperidin-1-yl)propyl)pyrimidine-2,4-diamine] | 6.86 ± 0.23 | – |
| 92.4 ± 3.68 | 85.4 ± 5.46 | 10.8 ± 2.21 | 6.83 ± 3.85 | – | – | – | – | – | c1ccc2c(c1)oc1ccc(Nc3ccnc(NCC4(CN5CCOCC5)CC4)n3)cc12 [JX3235, N^4-(dibenzo[b,d]furan-2-yl)-N^2-((1-(morpholinomethyl)cyclopropyl)methyl)pyrimidine-2,4-diamine] | 11.3 ± 0.32 | – |
| 91.3 ± 3.5 | 89.5 ± 2.33 | 73 ± 5.77 | 55.4 ± 3.73 | – | – | – | – | – | COC1CCN(CCCNc2nccc(Nc3ccc4oc5ccccc5c4c3)n2)CC1 [JX3246, N^4-(dibenzo[b,d]furan-2-yl)-N^2-(3-(4-methoxypiperidin-1-yl)propyl)pyrimidine-2,4-diamine] | 9.97 ± 0.62 | – |
| 63.3 ± 6.48 | 15.6 ± 0.73 | – | – | – | – | – | – | – | c1ccc2c(c1)oc1ccc(N3CCC4(CCN(CCCN5CCOCC5)CC4)CC3)cc12 [JX3230, 4-(3-(9-(dibenzo[b,d]furan-2-yl)-3,9-diazaspiro[5.5]undecan-3-yl)propyl)morpholine] | > 50 | – |
| 86.8 ± 1.76 | 74.3 ± 4.51 | 1.15 ± 2.32 | 3.97 ± 2.03 | – | – | – | – | – | COc1cnc(NCCCN2CCOCC2)nc1Nc1ccc2oc3ccccc3c2c1 [JX3218, N^4-(dibenzo[b,d]furan-2-yl)-5-methoxy-N^2-(3-morpholinopropyl)pyrimidine-2,4-diamine] | 13.3 ± 0.3 | – |
| 96.84 ± 0.61 | 95.5 ± 2.8 | 96.35 ± 0.66 | 92.48 ± 0.8 | – | – | 21.4 ± 6.07 | 9.76 ± 2.44 | – | CC1CCN(CCCNc2nccc(Nc3ccc4oc5ccccc5c4c3)n2)CC1 [JX3245, N^4-(dibenzo[b,d]furan-2-yl)-N^2-(3-(4-methylpiperidin-1-yl)propyl)pyrimidine-2,4-diamine] | 5.95 ± 0.04 | – |
| – | – | 29.1 ± 11.8 | 11.3 ± 5.07 | 96.66 ± 1.05 | 87.90 ± 2.73 | – | – | – | c1ccc2c(c1)oc1ccc(Nc3cncc(NCCCN4CCOCC4)n3)cc12 [JX3224, N^2-(dibenzo[b,d]furan-2-yl)-N^6-(3-morpholinopropyl)pyrazine-2,6-diamine] | – | 21.6 ± 0.8 |
| 92.2 ± 1.15 | 97.2 ± 1.69 | 4.34 ± 8.43 | 2.58 ± 3.95 | – | – | – | – | – | CC(CNc1nccc(Nc2ccc3oc4ccccc4c3c2)n1)CN1CCOCC1 (centres unmarked) [JX3233, N^4-(dibenzo[b,d]furan-2-yl)-N^2-(2-methyl-3-morpholinopropyl)pyrimidine-2,4-diamine] | 10.44 ± 0.01 | – |
